Values quoted from earlier work in patent US20230104487A1, “11-(4-CHLOROPHENYL)-4-(2,3-DIHYDRO-1H-INDOLE-1-CARBONYL)-3,11-DIMETHYL-5,10,DIOXATRICYCLO[7.4.0.0,2,6,]TRIDECA-1,3,6,8-TETRAEN-13-ONE AND DERIVATIVES AS DESTABILIZER OF CRY1 FOR THE TREATMENT OF CIRCADIAN RHYTHM ASSOCIATED DISEASES AND DISORDERS” (KOC UNIVERSITESI, priority 2019, published 2023).

Tests used:
REV-ERB = details: Solt et al., 2012; cited from earlier work
CRYs = details: Hirota et al., 2012; cited from earlier work
gluconeogenesis = details: Hirota et al., 2012; cited from earlier work

SMILES	effect on REV-ERB's repressor function (REV-ERB)	effect on stability of the CRYs (CRYs)	effect on gluconeogenesis (gluconeogenesis)
CC(C)(C)OC(=O)CN(Cc1ccc(Cl)cc1)Cc1ccc([N+](=O)[O-])s1 [GSK4112]	enhance REV-ERB's repressor function toward Bmal1 transcription	–	–
CS(=O)(=O)N(Cc1ccco1)CC(O)Cn1c2ccccc2c2ccccc21 (stereo not drawn) [KL001]	–	increases stability of the CRYs	suppresses the gluconeogenesis
